The source made the active and inactive calls. The rule behind the calls is not given here.
How the values were obtained:
[1] = biological target: Replicase polyprotein 1ab (Severe acute respiratory syndrome-related coronavirus) (UniProt P0C6X7); conditions: dose 5.0 µM, time 30.0 min
[2] = biological target: Replicase polyprotein 1ab (Severe acute respiratory syndrome coronavirus 2) (UniProt P0DTD1); conditions: dose 5.0 µM, time 30.0 min, values are per cent of control
[3] = biological target: Nonstructural protein 5 (Dengue virus) (UniProt V5TFZ2); conditions: dengue virus type 3; dose 5.0 µM, time 30.0 min
[4] = biological target: T1, mRNA cap guanine-N(7) methyltransferase (Homo sapiens, UniProt O43148); conditions: dose 5.0 µM, time 30.0 min
[5] = biological target: Replicase polyprotein 1ab (Severe acute respiratory syndrome coronavirus 2, UniProt P0DTD1)
[6] = Cytotoxicity against Green monkey VeroE6/TMPRSS2 cells assessed as reduction in cell viability upto 10 uM by CellTiter Blue assay; type: toxicity, cell-based; conditions: chlorocebus sabaeus, veroe6/tmprss2, 10 µM
SARS-CoV-2 = test: Antiviral activity against SARS-CoV-2 B.1 infected in Green monkey VeroE6/TMPRSS2 cells assessed as viral replication inhibition at 10 uM incubated for 2 days by qRT-PCR analysis relative to control; type: functional
[7] = biological target: Replicase polyprotein 1ab (Severe acute respiratory syndrome-related coronavirus, UniProt P0C6X7)
[8] = biological target: T1, mRNA cap guanine-N(7) methyltransferase
Nonstructural protein 5 = Nonstructural protein 5 (Dengue virus, UniProt V5TFZ2); parameters: species or system dengue virus type 3
[9] = tested on: Severe acute respiratory syndrome coronavirus 2; conditions: time 30.0 min
[10] = Severe acute respiratory syndrome coronavirus 2, time 2.0 day

T1 sequence (O43148 whole entry): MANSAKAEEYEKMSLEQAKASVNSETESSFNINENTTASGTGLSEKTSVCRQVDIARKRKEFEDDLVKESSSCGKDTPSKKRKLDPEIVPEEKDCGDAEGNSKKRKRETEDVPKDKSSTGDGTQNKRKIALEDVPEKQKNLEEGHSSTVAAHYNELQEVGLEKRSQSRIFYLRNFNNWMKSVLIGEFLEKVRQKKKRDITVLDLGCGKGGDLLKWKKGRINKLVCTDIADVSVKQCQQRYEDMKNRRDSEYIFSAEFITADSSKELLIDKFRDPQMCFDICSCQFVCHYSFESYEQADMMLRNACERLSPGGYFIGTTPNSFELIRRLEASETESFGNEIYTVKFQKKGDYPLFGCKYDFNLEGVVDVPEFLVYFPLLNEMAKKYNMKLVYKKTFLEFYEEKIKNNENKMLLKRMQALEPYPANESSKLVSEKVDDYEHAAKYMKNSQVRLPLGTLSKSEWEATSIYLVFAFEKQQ

Compound	inhibition [1]	residual activity [2]	inhibition [3]	inhibition [4]	IC50 [5]	Activity [6]	Activity (SARS-CoV-2; [10])	Activity (SARS-CoV-2; time 2 day)	IC50 [7]	IC50 [8]	IC50 (Nonstructural protein 5)	inhibition [9]
CCN(C[C@H]1O[C@@H](n2cnc3c(NC)ncnc32)[C@H](O)[C@@H]1O)S(=O)(=O)c1ccc(C)c([N+](=O)[O-])c1	20.1%	10.9%	97.1%	inactive	187 nM	–	–	–	–	–	–	–
Cc1cc(S(=O)(=O)NC[C@H]2O[C@@H](n3cnc4c(=O)[nH]cnc43)[C@H](O)[C@@H]2O)ccc1Cl	71.8%	87.6%	inactive	inactive	–	–	–	–	–	–	–	–
CCN(C[C@H]1O[C@@H](n2cnc3c(NC)ncnc32)[C@H](O)[C@@H]1O)S(=O)(=O)c1ccc(Br)c([N+](=O)[O-])c1	29.5%	15.2%	98%	inactive	383 nM	–	–	–	–	–	–	–
Cc1ccc(S(=O)(=O)N(C)C[C@H]2O[C@@H](n3cc(C#Cc4ccccc4)c4c(N)ncnc43)[C@H](O)[C@@H]2O)cc1Cl	2.4%	7%	94.8%	inactive	25.6 nM	Non-Toxic	inactive	–	–	–	–	–
COc1ccc(S(=O)(=O)N(C)C[C@H]2O[C@@H](n3cc(C#Cc4ccccc4)c4c(N)ncnc43)[C@H](O)[C@@H]2O)cc1[N+](=O)[O-]	0.5%	0%	91.6%	inactive	2.8 nM	Non-Toxic	inactive	–	–	–	–	–
COc1ccc(S(=O)(=O)N(C)C[C@H]2O[C@@H](n3cc(C#Cc4cnc5ccccc5c4)c4c(N)ncnc43)[C@H](O)[C@@H]2O)cc1[N+](=O)[O-]	0.8%	0%	inactive	49.9%	1.3 nM	Non-Toxic	–	50%	–	–	–	–
CCN(C[C@H]1O[C@@H](n2cnc3c(N)ncnc32)[C@H](O)[C@@H]1O)S(=O)(=O)c1ccc(OC)c(C#N)c1	4.2%	–	inactive	69.5%	–	–	–	–	–	–	–	–
CN(C[C@H]1O[C@@H](n2cc(C#Cc3cnc4ccccc4c3)c3c(N)ncnc32)[C@H](O)[C@@H]1O)S(=O)(=O)c1ccc(Br)c([N+](=O)[O-])c1	5.5%	5.4%	inactive	52.3%	3.5 nM	Non-Toxic	–	50%	–	–	–	–
Cc1ccc(S(=O)(=O)N(C)C[C@H]2O[C@@H](n3cc(C#Cc4ccccc4)c4c(N)ncnc43)[C@H](O)[C@@H]2O)cc1[N+](=O)[O-]	1%	1%	93.3%	inactive	9.5 nM	Non-Toxic	inactive	–	–	–	–	–
CNc1ncnc2c1ncn2[C@@H]1O[C@H](CNS(=O)(=O)c2ccc(Br)c([N+](=O)[O-])c2)[C@@H](O)[C@H]1O	54%	33.8%	78.1%	57%	3410 nM	–	–	–	–	–	–	–
CCN(C[C@H]1O[C@@H](n2cnc3c(=O)[nH]cnc32)[C@H](O)[C@@H]1O)S(=O)(=O)c1ccc(Cl)c(C)c1	91%	75.5%	inactive	inactive	–	–	–	–	–	–	–	–
CNc1ncnc2c1ncn2[C@@H]1O[C@H](CNS(=O)(=O)c2ccc(OC)c([N+](=O)[O-])c2)[C@@H](O)[C@H]1O	41.9%	31.5%	inactive	inactive	573 nM	–	–	–	–	–	–	–
CCN(C[C@H]1O[C@@H](n2cnc3c(NC)ncnc32)[C@H](O)[C@@H]1O)S(=O)(=O)c1ccc(C)c(Cl)c1	10.9%	8.3%	inactive	78%	130 nM	–	–	–	–	–	–	–
COc1ccc(S(=O)(=O)NC[C@H]2O[C@@H](n3cnc4c(=O)[nH]cnc43)[C@H](O)[C@@H]2O)cc1[N+](=O)[O-]	91.7%	93.6%	inactive	inactive	–	–	–	–	–	–	–	–
CCN(C[C@H]1O[C@@H](n2cnc3c(NC)ncnc32)[C@H](O)[C@@H]1O)S(=O)(=O)c1ccc(OC)c(C#N)c1	4.3%	4.2%	–	55.9%	62 nM	–	–	–	51.7 nM	16.1 µM	Not Active	–
COc1ccc(S(=O)(=O)N(C)C[C@H]2O[C@@H](n3cc(C#Cc4cnc5ccccc5c4)c4c(N)ncnc43)[C@H](O)[C@@H]2O)cc1C#N	1.4%	0%	–	53%	0.72 nM	Non-Toxic	–	50%	0.141 nM	165 µM	Not Active	inactive
CCN(C[C@H]1O[C@@H](n2cnc3c(=O)[nH]cnc32)[C@H](O)[C@@H]1O)S(=O)(=O)c1ccc(OC)c(C#N)c1	48.1%	30.7%	89.8%	88.9%	4000 nM	–	–	–	–	–	–	–
Cc1ccc(S(=O)(=O)N(C)C[C@H]2O[C@@H](n3cc(C#Cc4cnc5ccccc5c4)c4c(N)ncnc43)[C@H](O)[C@@H]2O)cc1Cl	1.5%	3.2%	97.7%	90.7%	2.07 nM	Non-Toxic	–	50%	–	–	–	–
COc1ccc(S(=O)(=O)NC[C@H]2O[C@@H](n3cnc4c(=O)[nH]cnc43)[C@H](O)[C@@H]2O)cc1C#N	98.4%	86%	inactive	inactive	–	–	–	–	–	–	–	–
Cc1ccc(S(=O)(=O)N(C)C[C@H]2O[C@@H](n3cc(C#Cc4cnc5ccccc5c4)c4c(N)ncnc43)[C@H](O)[C@@H]2O)cc1[N+](=O)[O-]	1.9%	4.2%	96%	86.7%	2.1 nM	Non-Toxic	–	50%	–	–	–	–
COc1ccc(S(=O)(=O)N(C)C[C@H]2O[C@@H](n3cc(C#Cc4ccccc4)c4c(N)ncnc43)[C@H](O)[C@@H]2O)cc1C#N	1%	2.4%	–	inactive	1.2 nM	Non-Toxic	inactive	–	0.8 nM	56.5 µM	Not Active	inactive
CNc1ncnc2c1ncn2[C@@H]1O[C@H](CNS(=O)(=O)c2ccc(C)c(Cl)c2)[C@@H](O)[C@H]1O	53.5%	45.4%	inactive	92%	2180 nM	–	–	–	–	–	–	–
CN(C[C@H]1O[C@@H](n2cc(C#Cc3ccccc3)c3c(N)ncnc32)[C@H](O)[C@@H]1O)S(=O)(=O)c1ccc(Br)c([N+](=O)[O-])c1	3.3%	5%	96.9%	95.9%	17.3 nM	Non-Toxic	inactive	–	–	–	–	–
CCN(C[C@H]1O[C@@H](n2cnc3c(=O)[nH]cnc32)[C@H](O)[C@@H]1O)S(=O)(=O)c1ccc(OC)c([N+](=O)[O-])c1	69.8%	56.4%	86.4%	inactive	–	–	–	–	–	–	–	–
CNc1ncnc2c1ncn2[C@@H]1O[C@H](CNS(=O)(=O)c2ccc(C)c([N+](=O)[O-])c2)[C@@H](O)[C@H]1O	66.4%	38.7%	76.6%	66.4%	2850 nM	–	–	–	–	–	–	–
CNc1ncnc2c1ncn2[C@@H]1O[C@H](CNS(=O)(=O)c2ccc(OC)c(C#N)c2)[C@@H](O)[C@H]1O	45.1%	25.4%	–	inactive	468 nM	–	–	–	3990 nM	56.2 µM	Not Active	inactive
CCN(C[C@H]1O[C@@H](n2cnc3c(NC)ncnc32)[C@H](O)[C@@H]1O)S(=O)(=O)c1ccc(OC)c([N+](=O)[O-])c1	16.4%	10.3%	90%	73.3%	274 nM	–	–	–	–	–	–	–

Source: ChEMBL document CHEMBL5370550, “Structure-guided optimization of adenosine mimetics as selective and potent inhibitors of coronavirus nsp14 N7-methyltransferases” (Eur J Med Chem, 2023)
